{"source": "the kinase profiling compilation of Christmann-Franck et al. (2016)", "assay_in_all_cases": "radiometric filter-binding kinase assay", "details_in_all_cases": "compound 100.0 µM", "key": {"CaMK1 (human)": {"molecular_target": "CaMK1 (human) (UniProt Q14012)"}, "MAPK14 (human)": {"molecular_target": "MAPK14 (human) (UniProt Q16539)"}, "AURKA (human)": {"molecular_target": "AURKA (human) (UniProt O14965)", "sequence (O14965 whole entry, looked up)": "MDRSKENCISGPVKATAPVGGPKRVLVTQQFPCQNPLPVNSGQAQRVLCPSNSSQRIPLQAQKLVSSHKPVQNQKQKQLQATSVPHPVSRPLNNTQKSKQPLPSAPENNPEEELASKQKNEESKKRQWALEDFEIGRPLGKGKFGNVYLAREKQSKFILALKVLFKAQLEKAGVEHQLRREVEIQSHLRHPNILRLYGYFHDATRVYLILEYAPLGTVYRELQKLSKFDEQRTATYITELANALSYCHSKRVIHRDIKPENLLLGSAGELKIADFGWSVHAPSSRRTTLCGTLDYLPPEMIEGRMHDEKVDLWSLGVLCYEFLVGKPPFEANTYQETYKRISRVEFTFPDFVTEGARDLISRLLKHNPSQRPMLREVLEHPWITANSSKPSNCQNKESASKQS"}, "MAP3K11 (human)": {"molecular_target": "MAP3K11 (human) (UniProt Q16584)"}, "GSK3B (human)": {"molecular_target": "GSK3B (human) (UniProt P49841)", "sequence (P49841 whole entry, looked up)": "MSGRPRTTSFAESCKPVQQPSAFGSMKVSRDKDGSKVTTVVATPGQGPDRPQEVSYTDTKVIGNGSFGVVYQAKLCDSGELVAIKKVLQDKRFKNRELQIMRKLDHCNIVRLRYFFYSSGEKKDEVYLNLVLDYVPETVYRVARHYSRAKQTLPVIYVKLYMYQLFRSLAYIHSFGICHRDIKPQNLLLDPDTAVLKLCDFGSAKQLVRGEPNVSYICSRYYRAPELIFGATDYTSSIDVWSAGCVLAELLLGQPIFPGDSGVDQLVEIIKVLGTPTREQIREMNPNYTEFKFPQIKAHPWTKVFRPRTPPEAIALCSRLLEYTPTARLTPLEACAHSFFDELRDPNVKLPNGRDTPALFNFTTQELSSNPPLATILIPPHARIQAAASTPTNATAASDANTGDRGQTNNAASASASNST"}, "HIPK2 (human)": {"molecular_target": "HIPK2 (human) (UniProt Q9H2X6)"}, "MAPK9 (human)": {"molecular_target": "MAPK9 (human) (UniProt P45984)"}, "DYRK1A (human)": {"molecular_target": "DYRK1A (human) (UniProt Q13627)"}, "PIM3 (human)": {"molecular_target": "PIM3 (human) (UniProt Q86V86)"}, "INSR (human)": {"molecular_target": "INSR (human) (UniProt P06213)"}, "DYRK2 (human)": {"molecular_target": "DYRK2 (human) (UniProt Q92630)"}, "BTK (human)": {"molecular_target": "BTK (human) (UniProt Q06187)", "sequence (Q06187 whole entry, looked up)": "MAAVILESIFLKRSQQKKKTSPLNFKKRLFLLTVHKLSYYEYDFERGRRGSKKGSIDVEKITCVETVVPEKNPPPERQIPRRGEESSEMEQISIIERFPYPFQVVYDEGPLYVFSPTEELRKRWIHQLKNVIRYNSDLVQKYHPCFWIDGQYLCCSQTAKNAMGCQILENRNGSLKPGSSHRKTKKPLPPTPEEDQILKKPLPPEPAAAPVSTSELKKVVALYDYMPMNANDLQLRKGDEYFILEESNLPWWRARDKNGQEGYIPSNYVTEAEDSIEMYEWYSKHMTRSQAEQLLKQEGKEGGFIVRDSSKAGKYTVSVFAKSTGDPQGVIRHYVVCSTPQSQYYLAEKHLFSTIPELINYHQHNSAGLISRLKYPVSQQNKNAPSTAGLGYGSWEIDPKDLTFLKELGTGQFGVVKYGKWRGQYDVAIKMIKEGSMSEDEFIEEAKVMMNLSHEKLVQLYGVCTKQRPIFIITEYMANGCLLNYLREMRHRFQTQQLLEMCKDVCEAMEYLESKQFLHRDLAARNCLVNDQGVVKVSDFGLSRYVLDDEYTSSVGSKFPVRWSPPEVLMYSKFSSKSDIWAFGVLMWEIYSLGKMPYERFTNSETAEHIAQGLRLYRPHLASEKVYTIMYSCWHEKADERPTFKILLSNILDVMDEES"}, "MAPKAPK2 (human)": {"molecular_target": "MAPKAPK2 (human) (UniProt P49137)"}, "RIPK2 (human)": {"molecular_target": "RIPK2 (human) (UniProt O43353)"}, "MAPK13 (human)": {"molecular_target": "MAPK13 (human) (UniProt O15264)"}, "RPS6KA3 KD1 KD2 (human)": {"molecular_target": "RPS6KA3 KD1 KD2 (human) (UniProt P51812)"}, "MAPK1 (human)": {"molecular_target": "MAPK1 (human) (UniProt P28482)"}, "MAPK8 (human)": {"molecular_target": "MAPK8 (human) (UniProt P45983)"}, "MAPK11 (human)": {"molecular_target": "MAPK11 (human) (UniProt Q15759)"}, "FGFR1 (human)": {"molecular_target": "FGFR1 (human) (UniProt P11362)"}, "CLK2 (human)": {"molecular_target": "CLK2 (human) (UniProt P49760)", "sequence (P49760 whole entry, looked up)": "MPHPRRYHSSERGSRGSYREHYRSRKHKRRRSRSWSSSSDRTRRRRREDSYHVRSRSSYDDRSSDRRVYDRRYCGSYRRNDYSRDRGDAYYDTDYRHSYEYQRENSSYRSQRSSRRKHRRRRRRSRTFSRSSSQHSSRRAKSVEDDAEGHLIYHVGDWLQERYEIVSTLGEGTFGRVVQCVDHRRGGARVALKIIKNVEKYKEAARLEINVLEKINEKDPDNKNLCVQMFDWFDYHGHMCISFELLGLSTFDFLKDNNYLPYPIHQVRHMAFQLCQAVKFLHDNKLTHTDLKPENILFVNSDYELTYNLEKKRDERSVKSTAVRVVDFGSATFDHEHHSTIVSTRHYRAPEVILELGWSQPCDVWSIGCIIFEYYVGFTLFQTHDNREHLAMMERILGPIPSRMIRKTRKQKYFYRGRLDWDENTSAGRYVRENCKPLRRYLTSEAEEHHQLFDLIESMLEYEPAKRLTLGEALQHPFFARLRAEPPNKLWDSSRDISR"}, "NEK2 (human)": {"molecular_target": "NEK2 (human) (UniProt P51955)"}, "MARK2 (human)": {"molecular_target": "MARK2 (human) (UniProt Q7KZI7)"}, "MAPK12 (human)": {"molecular_target": "MAPK12 (human) (UniProt P53778)"}, "MAPKAPK3 (human)": {"molecular_target": "MAPKAPK3 (human) (UniProt Q16644)"}, "FLT1 (human)": {"molecular_target": "FLT1 (human) (UniProt P17948)"}, "MAPK3 (human)": {"molecular_target": "MAPK3 (human) (UniProt P27361)"}, "MINK1 (human)": {"molecular_target": "MINK1 (human) (UniProt Q8N4C8)", "sequence (Q8N4C8 whole entry, looked up)": "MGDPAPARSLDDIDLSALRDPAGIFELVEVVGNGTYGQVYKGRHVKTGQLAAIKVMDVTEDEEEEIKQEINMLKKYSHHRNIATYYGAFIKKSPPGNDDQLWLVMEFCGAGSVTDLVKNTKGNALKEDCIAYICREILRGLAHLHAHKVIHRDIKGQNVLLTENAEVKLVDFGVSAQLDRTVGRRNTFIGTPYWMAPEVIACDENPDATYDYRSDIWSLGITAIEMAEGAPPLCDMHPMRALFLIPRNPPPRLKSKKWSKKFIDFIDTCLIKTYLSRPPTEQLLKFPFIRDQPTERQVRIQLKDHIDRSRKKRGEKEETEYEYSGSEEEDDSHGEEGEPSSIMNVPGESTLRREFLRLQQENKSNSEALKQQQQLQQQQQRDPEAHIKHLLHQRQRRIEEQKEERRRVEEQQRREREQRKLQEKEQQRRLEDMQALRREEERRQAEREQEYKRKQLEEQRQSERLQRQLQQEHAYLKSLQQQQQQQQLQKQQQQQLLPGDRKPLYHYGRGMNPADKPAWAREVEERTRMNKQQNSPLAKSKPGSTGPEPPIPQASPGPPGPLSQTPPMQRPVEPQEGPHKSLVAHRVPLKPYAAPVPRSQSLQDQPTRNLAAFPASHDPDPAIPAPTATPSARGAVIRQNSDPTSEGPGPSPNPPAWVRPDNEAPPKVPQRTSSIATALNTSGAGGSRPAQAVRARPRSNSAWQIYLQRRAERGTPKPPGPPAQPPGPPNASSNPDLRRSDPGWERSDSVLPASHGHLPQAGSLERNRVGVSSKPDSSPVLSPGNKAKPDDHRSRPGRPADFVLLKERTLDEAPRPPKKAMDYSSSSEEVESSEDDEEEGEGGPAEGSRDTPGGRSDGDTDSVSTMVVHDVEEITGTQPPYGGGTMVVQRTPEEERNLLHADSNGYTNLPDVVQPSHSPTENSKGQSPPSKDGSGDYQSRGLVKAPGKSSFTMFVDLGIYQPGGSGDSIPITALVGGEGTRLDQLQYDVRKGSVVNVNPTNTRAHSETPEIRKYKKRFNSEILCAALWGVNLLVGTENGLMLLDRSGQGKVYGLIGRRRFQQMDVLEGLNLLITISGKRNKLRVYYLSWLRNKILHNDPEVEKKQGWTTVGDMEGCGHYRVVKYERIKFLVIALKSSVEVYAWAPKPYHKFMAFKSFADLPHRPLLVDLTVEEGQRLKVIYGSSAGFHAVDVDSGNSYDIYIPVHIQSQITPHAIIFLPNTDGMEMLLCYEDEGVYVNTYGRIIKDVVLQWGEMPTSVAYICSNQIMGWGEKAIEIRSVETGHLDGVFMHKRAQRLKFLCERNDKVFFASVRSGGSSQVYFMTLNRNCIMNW"}, "AURKB (human)": {"molecular_target": "AURKB (human) (UniProt Q96GD4)"}, "MAP3K9 (human)": {"molecular_target": "MAP3K9 (human) (UniProt P80192)"}, "INSRR (human)": {"molecular_target": "INSRR (human) (UniProt P14616)", "sequence (P14616 whole entry, looked up)": "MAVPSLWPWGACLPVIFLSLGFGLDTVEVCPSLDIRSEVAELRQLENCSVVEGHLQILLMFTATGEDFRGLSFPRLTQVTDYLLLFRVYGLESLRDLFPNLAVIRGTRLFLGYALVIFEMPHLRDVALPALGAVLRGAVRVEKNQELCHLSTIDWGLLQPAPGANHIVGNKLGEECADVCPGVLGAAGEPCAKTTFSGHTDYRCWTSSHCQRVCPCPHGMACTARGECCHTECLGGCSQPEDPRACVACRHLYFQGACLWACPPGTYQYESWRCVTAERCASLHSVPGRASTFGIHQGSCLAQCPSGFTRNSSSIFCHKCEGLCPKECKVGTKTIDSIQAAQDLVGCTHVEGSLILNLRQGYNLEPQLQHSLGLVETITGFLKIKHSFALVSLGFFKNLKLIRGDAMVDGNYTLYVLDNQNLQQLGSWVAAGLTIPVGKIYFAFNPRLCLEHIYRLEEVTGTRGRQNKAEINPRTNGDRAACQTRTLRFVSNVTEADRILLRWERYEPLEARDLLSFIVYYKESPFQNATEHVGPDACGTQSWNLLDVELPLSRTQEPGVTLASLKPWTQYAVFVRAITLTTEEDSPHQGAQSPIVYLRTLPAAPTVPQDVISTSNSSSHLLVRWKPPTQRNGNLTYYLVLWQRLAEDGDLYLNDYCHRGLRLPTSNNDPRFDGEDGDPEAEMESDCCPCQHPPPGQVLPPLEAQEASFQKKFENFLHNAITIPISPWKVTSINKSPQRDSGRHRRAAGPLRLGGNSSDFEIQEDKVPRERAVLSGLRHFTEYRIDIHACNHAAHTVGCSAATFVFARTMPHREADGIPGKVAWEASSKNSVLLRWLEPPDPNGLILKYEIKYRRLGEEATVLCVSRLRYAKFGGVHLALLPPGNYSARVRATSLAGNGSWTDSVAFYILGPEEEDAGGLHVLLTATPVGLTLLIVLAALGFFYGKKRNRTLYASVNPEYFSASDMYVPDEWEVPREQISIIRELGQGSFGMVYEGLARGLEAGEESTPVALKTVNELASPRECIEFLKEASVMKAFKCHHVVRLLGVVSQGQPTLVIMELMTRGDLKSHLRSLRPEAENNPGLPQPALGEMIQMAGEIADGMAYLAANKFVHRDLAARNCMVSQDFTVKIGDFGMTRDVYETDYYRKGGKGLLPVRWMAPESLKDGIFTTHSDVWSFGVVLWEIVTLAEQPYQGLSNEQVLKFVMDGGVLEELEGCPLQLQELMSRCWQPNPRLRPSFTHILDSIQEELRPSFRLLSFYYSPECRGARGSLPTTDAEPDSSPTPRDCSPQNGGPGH"}, "[1]": {"tested_on": "AKT2 (human), P31751 [S474D]"}, "IKBKE (human)": {"molecular_target": "IKBKE (human) (UniProt Q14164)"}, "PLK1 (human)": {"molecular_target": "PLK1 (human) (UniProt P53350)"}, "NUAK1 (human)": {"molecular_target": "NUAK1 (human) (UniProt O60285)"}, "CHEK2 (human)": {"molecular_target": "CHEK2 (human) (UniProt O96017)"}, "MAPK10 (human)": {"molecular_target": "MAPK10 (human) (UniProt P53779)"}, "DYRK3 (human)": {"molecular_target": "DYRK3 (human) (UniProt O43781)"}, "TTK (human)": {"molecular_target": "TTK (human) (UniProt P33981)"}, "PIM1 (human)": {"molecular_target": "PIM1 (human) (UniProt P11309)", "sequence (P11309 whole entry, looked up)": "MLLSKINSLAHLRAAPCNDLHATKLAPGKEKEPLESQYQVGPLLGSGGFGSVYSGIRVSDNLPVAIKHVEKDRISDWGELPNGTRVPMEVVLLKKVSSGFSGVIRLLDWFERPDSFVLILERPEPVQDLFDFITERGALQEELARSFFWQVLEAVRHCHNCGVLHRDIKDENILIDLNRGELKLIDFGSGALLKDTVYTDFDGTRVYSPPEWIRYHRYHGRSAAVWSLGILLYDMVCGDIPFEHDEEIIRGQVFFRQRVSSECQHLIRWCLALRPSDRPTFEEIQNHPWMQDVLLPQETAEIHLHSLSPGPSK"}, "ERBB4 (human)": {"molecular_target": "ERBB4 (human) (UniProt Q15303)"}}}
{"molecule": "Cc1cccc(Nc2nc(-c3sc(N)nc3C)cs2)n1", "values": [{"measurement": "residual activity", "setting": "CaMK1 (human)", "value": 3, "unit": "%"}, {"measurement": "residual activity", "setting": "MAPK14 (human)", "value": 36, "unit": "%"}, {"measurement": "residual activity", "setting": "AURKA (human)", "value": 7, "unit": "%"}, {"measurement": "residual activity", "setting": "MAP3K11 (human)", "value": 5, "unit": "%"}, {"measurement": "residual activity", "setting": "GSK3B (human)", "value": 78, "unit": "%"}, {"measurement": "residual activity", "setting": "HIPK2 (human)", "value": 7, "unit": "%"}, {"measurement": "residual activity", "setting": "MAPK9 (human)", "value": 88, "unit": "%"}, {"measurement": "residual activity", "setting": "DYRK1A (human)", "value": 18, "unit": "%"}, {"measurement": "residual activity", "setting": "PIM3 (human)", "value": 6, "unit": "%"}, {"measurement": "residual activity", "setting": "INSR (human)", "value": 99, "unit": "%"}, {"measurement": "residual activity", "setting": "DYRK2 (human)", "value": 23, "unit": "%"}, {"measurement": "residual activity", "setting": "BTK (human)", "value": 21, "unit": "%"}, {"measurement": "residual activity", "setting": "MAPKAPK2 (human)", "value": 8, "unit": "%"}, {"measurement": "residual activity", "setting": "RIPK2 (human)", "value": 23, "unit": "%"}, {"measurement": "residual activity", "setting": "MAPK13 (human)", "value": 65, "unit": "%"}, {"measurement": "residual activity", "setting": "RPS6KA3 KD1 KD2 (human)", "value": 11, "unit": "%"}, {"measurement": "residual activity", "setting": "MAPK1 (human)", "value": 73, "unit": "%"}, {"measurement": "residual activity", "setting": "MAPK8 (human)", "value": 83, "unit": "%"}, {"measurement": "residual activity", "setting": "MAPK11 (human)", "value": 69, "unit": "%"}, {"measurement": "residual activity", "setting": "FGFR1 (human)", "value": 29, "unit": "%"}, {"measurement": "residual activity", "setting": "CLK2 (human)", "value": 18, "unit": "%"}, {"measurement": "residual activity", "setting": "NEK2 (human)", "value": 19, "unit": "%"}, {"measurement": "residual activity", "setting": "MARK2 (human)", "value": 66, "unit": "%"}, {"measurement": "residual activity", "setting": "MAPK12 (human)", "value": 60, "unit": "%"}, {"measurement": "residual activity", "setting": "MAPKAPK3 (human)", "value": 8, "unit": "%"}, {"measurement": "residual activity", "setting": "FLT1 (human)", "value": 12, "unit": "%"}, {"measurement": "residual activity", "setting": "MAPK3 (human)", "value": 19, "unit": "%"}, {"measurement": "residual activity", "setting": "MINK1 (human)", "value": 2, "unit": "%"}, {"measurement": "residual activity", "setting": "AURKB (human)", "value": 5, "unit": "%"}, {"measurement": "residual activity", "setting": "MAP3K9 (human)", "value": 4, "unit": "%"}, {"measurement": "residual activity", "setting": "INSRR (human)", "value": 26, "unit": "%"}, {"measurement": "residual activity", "setting": "[1]", "value": 8, "unit": "%"}, {"measurement": "residual activity", "setting": "IKBKE (human)", "value": 9, "unit": "%"}, {"measurement": "residual activity", "setting": "PLK1 (human)", "value": 90, "unit": "%"}, {"measurement": "residual activity", "setting": "NUAK1 (human)", "value": 14, "unit": "%"}, {"measurement": "residual activity", "setting": "CHEK2 (human)", "value": 41, "unit": "%"}, {"measurement": "residual activity", "setting": "MAPK10 (human)", "value": 80, "unit": "%"}, {"measurement": "residual activity", "setting": "DYRK3 (human)", "value": 23, "unit": "%"}, {"measurement": "residual activity", "setting": "TTK (human)", "value": 44, "unit": "%"}, {"measurement": "residual activity", "setting": "PIM1 (human)", "value": 13, "unit": "%"}, {"measurement": "residual activity", "setting": "ERBB4 (human)", "value": 19, "unit": "%"}]}
